Patent US20140135359A1, “METHODS OF DESIGNING, PREPARING, AND USING NOVEL PROTONOPHORES” (priority 2012, published 2014)
Where two headings read alike, the source gives them in different places.

What was measured:
[1] = system: isolated rat liver mitochondria; assay: Residual functional capacity / inhibitory effect on ADP-stimulated (state 3) oxygen consumption; assay type: biochemical; details: for inhibition of ADP-stimulated oxygen consumption: screening at 100 μM
[2] = system: isolated rat liver mitochondria; assay: Uncoupling activity: increase in basal (state 4) oxygen consumption by oxygraphy; assay type: biochemical; details: for Measured Uncoupling (% uncoupling ± SEM @ 100 μM): Table 1A, relative to ADP-stimulated respiration = 100%; for slope of the linear portion of the concentration-to-activity relationship: logarithmic scales
[3] = test conc. 25 μM, functional capacity (state 3 minus state 4 rate) as % of vehicle-treated mitochondria
[4] = test conc. 100 μM, functional capacity (state 3 minus state 4 rate) as % of vehicle-treated mitochondria
[5] = Suppl. Table 1, 100 μM, 2-3 mitochondrial preparations
[6] = test conc. 25 μM, increase in basal (state 4) oxygen consumption as % of average ADP-stimulated (state 3) rate in vehicle-treated mitochondria
[7] = test conc. 100 μM, increase in basal (state 4) oxygen consumption as % of average ADP-stimulated (state 3) rate in vehicle-treated mitochondria

| Compound | Inhibitory effect (%) ([1]; test conc. 25 μM) | Residual capacity (%) [1, 3] | Inhibitory effect (%) ([1]; test conc. 100 μM) | Residual capacity (%) [1, 4] | Measured Uncoupling Activity (% uncoupling ± SEM @ 100 μM) [2, 5] | Uncoupling (%) [2, 6] | Uncoupling (%) [2, 7] | further results |
| --- | --- | --- | --- | --- | --- | --- | --- | --- |
| COc1ccc(-c2coc3cc(O)cc(O)c3c2=O)cc1 [biochanin A] | 0% | 27 ± 27% | 0% | 0 ± 0% | 103 ± 22 % uncoupling | 75 ± 36% | 103 ± 22% | uncoupling activity ([2]; 100 μM, result in words): complete uncoupling; Measured Uncoupling (% uncoupling ± SEM @ 100 μM) ([2]; 100 μM): >100 % uncoupling |
| O=C(/C=C/c1ccc(O)c(O)c1)OCCc1ccccc1 [caffeic acid phenethyl ester] | 5% | 39 ± 12% | 43% | 0 ± 0% | – | 56 ± 13% | 57 ± 35% | – |
| O=C(O)/C=C/c1ccc(O)c(O)c1 [caffeic acid] | – | – | 21% | 79 ± 9% | 0 ± 1 % uncoupling | – | 0 ± 1% | – |
| Cc1ccc(C(C)C)cc1O [carvacrol] | – | – | 10% | 83 ± 2% | 7 ± 2 % uncoupling | – | 7 ± 2% | – |
| Oc1ccccc1O [catechol] | – | – | 12% | 88 ± 1% | 0 ± 0 % uncoupling | – | 0 ± 0% | – |
| O=c1cc(-c2ccc(O)cc2)oc2c(-c3c(O)cc(O)c4c(=O)cc(-c5ccc(O)cc5)oc34)c(O)cc(O)c12 [cupressuflavone] | – | – | 5% | 95 ± 4% | −2 ± 0 % uncoupling | – | −2 ± 0% | – |
| O=c1c(-c2ccc(O)cc2)coc2cc(O)ccc12 [daidzein] | 19% | 78 ± 5% | 26% | 68 ± 4% | 6 ± 1 % uncoupling | 3 ± 1% | 6 ± 1% | – |
| O=c1c(O)c(-c2ccccc2O)oc2cc(O)cc(O)c12 [datiscetin] | 33% | 52 ± 9% | 67% | 0 ± 0% | 33 ± 3 % uncoupling | 15 ± 2% | 33 ± 3% | inhibition of ADP-stimulated oxygen consumption [1]: inhibitory activity; uncoupling potency compared with 2,4-dinitrophenol ([2]; dose-escalation): potency on the order of that of 2,4-dinitrophenol; slope of the linear portion of the concentration-to-activity relationship ([2]; dose-escalation): 0.44 |
| COc1cc(/C=C/C(=O)O)ccc1O [ferulic acid] | – | – | 9% | 91 ± 9% | −1 ± 1 % uncoupling | – | −1 ± 1% | – |
| O=c1cc(-c2ccccc2)oc2ccccc12 [flavone] | – | – | 25% | 75 ± 13% | −1 ± 2 % uncoupling | – | −1 ± 2% | uncoupling activity ([2]; 100 μM, result in words): inactive |
| Cc1cc(O)c2c(c1)C(=O)c1cc(O)cc(O)c1C2=O [frangulic acid] | 41% | 0 ± 0% | 22% | 0 ± 0% | 78 ± 14 % uncoupling | 59 ± 16% | 78 ± 14% | Measured Uncoupling (% uncoupling ± SEM @ 100 μM) ([2]; 100 μM): 78 ± 14 % uncoupling; uncoupling potency compared with 2,4-dinitrophenol ([2]; dose-escalation): potency on the order of that of 2,4-dinitrophenol; maximal inducible uncoupling ([2]; dose-escalation, 100 μM or below): complete uncoupling |
| O=c1c(O)c(-c2ccccc2)oc2cc(O)cc(O)c12 [galangin] | 0% | 2 ± 2% | 5% | 0 ± 0% | 95 ± 9 % uncoupling | 102 ± 3% | 95 ± 9% | uncoupling activity ([2]; 25 μM): complete uncoupling; Measured Uncoupling (% uncoupling ± SEM @ 100 μM) ([2]; 100 μM): 95 ± 9 % uncoupling; uncoupling potency compared with 2,4-dinitrophenol ([2]; dose-escalation): potency on the order of that of 2,4-dinitrophenol; slope of the linear portion of the concentration-to-activity relationship ([2]; dose-escalation): 1.39 |
| O=C(O)c1cc(O)c(O)c(O)c1 [gallic acid] | – | – | 2% | 98 ± 1% | −2 ± 1 % uncoupling | – | −2 ± 1% | – |
| O=c1c(-c2ccc(O)cc2)coc2cc(O)cc(O)c12 [genistein] | 15% | 77 ± 1% | 6% | 20 ± 0% | 74 ± 4 % uncoupling | 8 ± 0% | 74 ± 4% | Measured Uncoupling (% uncoupling ± SEM @ 100 μM) ([2]; 100 μM): 74 ± 4 % uncoupling |
| COc1cc(/C=C/C(=O)c2ccc(O)cc2O)ccc1O [homobutein] | 15% | 79 ± 7% | 22% | 22 ± 3% | 56 ± 5 % uncoupling | 6 ± 0% | 56 ± 5% | inhibitory effect on oxidative phosphorylation ([1]; 50 μM (FIG. 19)): inhibition of ADP-stimulated consumption; uncoupling activity ([2]; 50 μM in 0.1% DMSO (FIG. 19)): partial uncoupling; Measured Uncoupling (% uncoupling ± SEM @ 100 μM) ([2]; 100 μM): 56 ± 5 % uncoupling |
| Oc1ccc(O)cc1 [hydroquinone] | – | – | 10% | 90 ± 8% | 0 ± 1 % uncoupling | – | 0 ± 1% | – |
| O=c1c(O)c(-c2ccc(O)cc2O)oc2cc(O)cc(O)c12 [morin] | – | – | 60% | 39 ± 3% | 1 ± 0 % uncoupling | – | 1 ± 0% | inhibition of ADP-stimulated oxygen consumption [1]: inhibitory activity |
| O=c1c(O)c(-c2cc(O)c(O)c(O)c2)oc2cc(O)cc(O)c12 [myricetin] | 28% | 66 ± 2% | 43% | 46 ± 3% | 11 ± 0 % uncoupling | 6 ± 3% | 11 ± 0% | – |
| Oc1ccccc1 [phenol] | – | – | – | – | – | – | – | Inhibitory effect (%) [1]: 4%; Residual capacity (%) [1]: 96 ± 4%; Measured Uncoupling Activity (% uncoupling ± SEM @ 100 μM) [2]: 0 ± 0 % uncoupling; Uncoupling (%) [2]: 0 ± 0% |
| O=C(CCc1ccc(O)cc1)c1c(O)cc(O)cc1O [phloretin] | 0% | 99 ± 12% | 44% | 41 ± 17% | 15 ± 3 % uncoupling | 3 ± 1% | 15 ± 3% | – |
| Oc1cc(O)cc(/C=C/c2ccc(O)c(O)c2)c1 [piceatannol (trans)] | 64% | 35 ± 7% | 89% | 6 ± 3% | – | 1 ± 1% | 5 ± 1% | – |
| Oc1cccc(O)c1O [pyrogallol] | – | – | 16% | 83 ± 17% | 1 ± 1 % uncoupling | – | 1 ± 1% | – |
| O=c1c(O)c(-c2ccc(O)c(O)c2)oc2cc(O)cc(O)c12 [quercetin] | 36% | 60 ± 10% | 80% | 12 ± 5% | 8 ± 1 % uncoupling | 4 ± 0% | 8 ± 1% | inhibition of ADP-stimulated oxygen consumption [1]: inhibitory activity |
| Oc1cccc(O)c1 [resorcinol] | – | – | 9% | 91 ± 3% | 0 ± 0 % uncoupling | – | 0 ± 0% | – |
| Oc1ccc(C=Cc2cc(O)cc(O)c2)cc1 [resveratrol (trans)] | 29% | 71 ± 9% | 62% | 36 ± 4% | – | 0 ± 0% | 2 ± 0% | – |
| O=C(O)c1ccccc1O [salicylic acid] | – | – | 6% | 90 ± 2% | 4 ± 0 % uncoupling | – | 4 ± 0% | – |
| COc1ccc(-c2cc(=O)c3c(O)cc(O)c(-c4cc(-c5cc(=O)c6c(O)cc(OC)cc6o5)ccc4OC)c3o2)cc1 [sciadopitysin] | – | – | 2% | 98 ± 0% | −1 ± 0 % uncoupling | – | −1 ± 0% | – |
| COc1cc(C2Oc3cc([C@H]4Oc5cc(O)cc(O)c5C(=O)[C@@H]4O)ccc3OC2CO)ccc1O (stereo partly shown) [silibinin (A and B), silibinin] | – | – | 73% | 22 ± 5% | 5 ± 1 % uncoupling | – | 5 ± 1% | inhibition of ADP-stimulated oxygen consumption [1]: inhibitory activity |
| C(=Cc1ccccc1)c1ccccc1 [stilbene (trans)] | – | – | 1% | 99 ± 3% | – | – | −1 ± 1% | – |
| Cc1ccc(C(C)C)c(O)c1 [thymol] | – | – | 29% | 65 ± 5% | 6 ± 0 % uncoupling | – | 6 ± 0% | – |
